What was measured:
FLT3 = molecular target: T1, FLT3 (Homo sapiens, UniProt P36888); test: TR-FRET kinase activity assay, FLT3; assay type: biochemical; settings: ATP at Km, 60 minutes
T1 sequence (P36888 27-993): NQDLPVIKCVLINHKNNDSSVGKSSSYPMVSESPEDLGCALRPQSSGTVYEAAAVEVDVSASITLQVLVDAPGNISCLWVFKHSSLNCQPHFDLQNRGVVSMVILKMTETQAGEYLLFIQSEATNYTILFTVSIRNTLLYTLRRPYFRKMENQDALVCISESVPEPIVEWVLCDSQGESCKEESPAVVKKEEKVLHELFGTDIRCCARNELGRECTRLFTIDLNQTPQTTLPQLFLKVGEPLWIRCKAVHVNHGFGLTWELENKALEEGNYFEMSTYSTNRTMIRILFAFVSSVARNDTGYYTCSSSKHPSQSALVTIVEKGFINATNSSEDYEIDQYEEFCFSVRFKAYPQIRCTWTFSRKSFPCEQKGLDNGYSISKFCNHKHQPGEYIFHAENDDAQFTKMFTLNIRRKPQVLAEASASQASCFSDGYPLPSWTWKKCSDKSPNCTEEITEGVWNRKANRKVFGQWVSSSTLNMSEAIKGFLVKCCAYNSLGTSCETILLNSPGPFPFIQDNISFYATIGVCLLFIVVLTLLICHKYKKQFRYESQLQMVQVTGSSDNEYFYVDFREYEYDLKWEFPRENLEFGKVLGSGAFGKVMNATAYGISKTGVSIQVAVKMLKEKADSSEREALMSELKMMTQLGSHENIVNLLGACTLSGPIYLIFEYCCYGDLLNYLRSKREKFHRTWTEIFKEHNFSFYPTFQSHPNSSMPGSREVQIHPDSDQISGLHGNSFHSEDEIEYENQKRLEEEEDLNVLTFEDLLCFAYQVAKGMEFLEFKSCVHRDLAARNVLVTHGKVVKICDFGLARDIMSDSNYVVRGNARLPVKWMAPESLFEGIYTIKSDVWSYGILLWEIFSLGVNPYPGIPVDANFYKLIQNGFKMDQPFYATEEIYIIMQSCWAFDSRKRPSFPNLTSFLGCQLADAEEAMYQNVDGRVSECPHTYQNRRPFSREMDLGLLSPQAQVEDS
Procedure, shortened: (§1)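 IC50 reflects the drop in TR-FRET between Eu anti-phosphotyrosine antibody and labelled peptide after a 60-minute room-temperature reaction. Buffer was 50 mM HEPES pH 7.5 with 10 mM MgCl2, 1 mM EGTA, 0.01% Brij 35 and 1 mM DTT, with ATP at Km per enzyme and EDTA quench.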

TYRO3 = molecular target: T2, TYRO3 (Homo sapiens, UniProt Q06418); test: TR-FRET kinase activity assay, TYRO3; assay type: biochemical; settings: ATP at Km, 60 minutes
T2 sequence (Q06418 41-890): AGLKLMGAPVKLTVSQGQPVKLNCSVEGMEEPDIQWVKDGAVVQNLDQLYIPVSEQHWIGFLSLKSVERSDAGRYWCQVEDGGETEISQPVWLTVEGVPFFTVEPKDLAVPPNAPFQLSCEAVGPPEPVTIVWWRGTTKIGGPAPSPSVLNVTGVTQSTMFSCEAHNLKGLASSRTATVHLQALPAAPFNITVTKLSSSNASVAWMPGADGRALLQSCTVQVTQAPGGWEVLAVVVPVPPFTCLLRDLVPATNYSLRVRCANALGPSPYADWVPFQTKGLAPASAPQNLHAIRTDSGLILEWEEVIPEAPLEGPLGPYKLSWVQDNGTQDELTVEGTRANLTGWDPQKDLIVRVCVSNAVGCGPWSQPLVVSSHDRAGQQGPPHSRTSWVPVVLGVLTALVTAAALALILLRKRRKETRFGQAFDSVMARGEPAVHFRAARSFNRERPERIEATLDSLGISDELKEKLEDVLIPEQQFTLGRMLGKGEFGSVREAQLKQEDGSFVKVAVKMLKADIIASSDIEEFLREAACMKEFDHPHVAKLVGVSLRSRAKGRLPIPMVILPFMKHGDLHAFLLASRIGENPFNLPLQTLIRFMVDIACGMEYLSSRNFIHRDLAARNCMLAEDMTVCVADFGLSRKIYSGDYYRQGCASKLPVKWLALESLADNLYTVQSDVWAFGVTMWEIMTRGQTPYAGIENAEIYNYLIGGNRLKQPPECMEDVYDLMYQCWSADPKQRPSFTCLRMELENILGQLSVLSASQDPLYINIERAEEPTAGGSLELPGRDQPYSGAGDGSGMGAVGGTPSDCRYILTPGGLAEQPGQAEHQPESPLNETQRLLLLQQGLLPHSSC
Procedure, shortened: as §1

IC50 (FLT3) [µM]	IC50 (TYRO3) [µM]	Compound
0.1 to 1	≤ 0.1	COC[C@H](C)Nc1ncc2c(-c3ccc(CN4CCOCC4)cc3)cc([C@H]3CC[C@H](NC(C)=O)CC3)n2n1 [Compound 300, N-((trans)-4-(2-(((S)-1-methoxypropan-2-yl)amino)-5-(4-(morpholinomethyl)phenyl)pyrrolo[2,1-f][1,2,4]triazin-7-yl)cyclohexyl)acetamide]
≤ 0.1	≤ 0.1	COC[C@H](C)Nc1ncc2c(-c3ccc(CN4CCOCC4)cc3)cc([C@H]3CC[C@H](NS(C)(=O)=O)CC3)n2n1 [Compound 301]
0.1 to 1	≤ 0.1	COC[C@H](C)Nc1ncc2c(-c3cnn(C4CN(CC(F)(F)F)C4)c3)cc([C@H]3CC[C@H](O)CC3)n2n1 [Compound 302]
0.1 to 1	≤ 0.1	COC[C@H](C)Nc1ncc2c(-c3cnn(CC4CNC(=O)C4)c3)cc([C@H]3CC[C@H](O)CC3)n2n1 (stereo partly shown) [Compound 303]
1 to 10	≤ 0.1	CNC(=O)c1cncc(-c2cc([C@H]3CC[C@H](O)CC3)n3nc(N[C@@H](C)CC(F)(F)F)ncc23)c1 [Compound 304]
0.1 to 1	≤ 0.1	COC[C@H](C)Nc1ncc2c(-c3cnn(Cc4cnccn4)c3)cc([C@H]3CC[C@H](O)CC3)n2n1 [Compound 305]
0.1 to 1	≤ 0.1	COC[C@H](C)Nc1ncc2c(-c3cnn(Cc4cnc(C)cn4)c3)cc([C@H]3CC[C@H](O)CC3)n2n1 [Compound 306]
≤ 0.1	≤ 0.1	CNC(=NC#N)N[C@H]1CC[C@H](c2cc(-c3ccc(CN4CCOCC4)cc3)c3cnc(N[C@@H](C)COC)nn32)CC1 [Compound 307]
1 to 10	≤ 0.1	COC[C@H](C)Nc1ncc2c(-c3cc(C)nc(C)c3)cc([C@H]3CC[C@H](O)CC3)n2n1 [Compound 308]
0.1 to 1	≤ 0.1	Cc1cc(-c2cc([C@H]3CC[C@H](O)CC3)n3nc(N[C@@H](C)C(F)F)ncc23)ccn1 [Compound 309]
0.1 to 1	≤ 0.1	C[C@@H](CC(F)(F)F)Nc1ncc2c(-c3cncc(C(=O)N(C)C)c3)cc([C@H]3CC[C@H](O)CC3)n2n1 [Compound 310]
0.1 to 1	≤ 0.1	C[C@@H](CC(F)(F)F)Nc1ncc2c(-c3cncc(C(=O)N4CCOCC4)c3)cc([C@H]3CC[C@H](O)CC3)n2n1 [Compound 311]
≤ 0.1	≤ 0.1	Cc1nnc(Cn2cc(-c3cc([C@H]4CC[C@H](O)CC4)n4nc(N[C@@H](C)COC(F)F)ncc34)cn2)o1 [Compound 312]
0.1 to 1	≤ 0.1	Cc1cc(-c2cc([C@H]3CC[C@H](O)CC3)n3nc(N[C@@H](C)COC(F)F)ncc23)ccn1 [Compound 313]
≤ 0.1	≤ 0.1	COC[C@H](C)Nc1ncc2c(-c3cnn(Cc4ccc(S(C)(=O)=O)cc4)c3)cc([C@H]3CC[C@H](O)CC3)n2n1 [Compound 314]
0.1 to 1	≤ 0.1	COC[C@H](C)Nc1ncc2c(-c3cnn([C@@H]4CCNC4=O)c3)cc([C@H]3CC[C@H](O)CC3)n2n1 [Compound 315]
≤ 0.1	≤ 0.1	CNc1c(N[C@H]2CC[C@H](c3cc(-c4ccc(CN5CCOCC5)cc4)c4cnc(N[C@@H](C)COC)nn43)CC2)c(=O)c1=O [Compound 316, 3-(((trans)-4-(2-(((S)-1-methoxypropan-2-yl)amino)-5-(4-(morpholinomethyl)phenyl)pyrrolo[2,1-f][1,2,4]triazin-7-yl)cyclohexyl)amino)-4-(methylamino)cyclobut-3-ene-1,2-dione]
≤ 0.1	≤ 0.1	CNC(=O)c1ccc(-c2cc([C@H]3CC[C@H](O)CC3)n3nc(N[C@@H](C)COC)ncc23)cn1 [Compound 317]

IC50 (FLT3) [µM]	IC50 (TYRO3) [µM]	Compound
1 to 10	≤ 0.1	COC[C@H](C)Nc1ncc2c(-c3cnn(C(C)(C)C(=O)N4CCC5(COC5)C4)c3)cc([C@H]3CC[C@H](O)CC3)n2n1 [Compound 318]
1 to 10	≤ 0.1	COC[C@H](C)Nc1ncc2c(-c3cnn(C(C)(C)C(=O)C4C[C@H]5COC[C@H]5C4)c3)cc([C@H]3CC[C@H](O)CC3)n2n1 (stereo partly shown) [Compound 319]
1 to 10	≤ 0.1	COC[C@H](C)Nc1ncc2c(-c3cnn(C(C)(C)C(=O)N4C[C@@H](C)O[C@@H](C)C4)c3)cc([C@H]3CC[C@H](O)CC3)n2n1 [Compound 320]
≤ 0.1	≤ 0.1	Cc1ccc(-c2cc([C@H]3CC[C@H](O)CC3)n3nc(N[C@@H](C)COC(F)F)ncc23)cn1 [Compound 321]
0.1 to 1	≤ 0.1	COCC(C)Nc1ncc2c(-c3cnn(Cc4ccc(=O)n(C)c4)c3)cc(C3CCC(O)CC3)n2n1 (stereo not shown) [Compound 322]
0.1 to 1	≤ 0.1	COC[C@H](C)Nc1ncc2c(-c3cnn(C4CCS(=O)(=O)CC4)c3)cc([C@H]3CC[C@H](O)CC3)n2n1 [Compound 323]
0.1 to 1	≤ 0.1	COC[C@H](C)Nc1ncc2c(-c3cnn(C[C@H]4CCC(=O)N4)c3)cc([C@H]3CC[C@H](O)CC3)n2n1 [Compound 324]
1 to 10	≤ 0.1	COC[C@H](C)Nc1ncc2c(-c3cnn(C(C)(C)C(=O)N4CC5(COC5)C4)c3)cc([C@H]3CC[C@H](O)CC3)n2n1 [Compound 326]
1 to 10	≤ 0.1	COC[C@H](C)Nc1ncc2c(-c3cnn(C(C)(C)C(=O)N4C[C@H]5CC[C@@H](C4)O5)c3)cc([C@H]3CC[C@H](O)CC3)n2n1 [Compound 327]
1 to 10	≤ 0.1	COC[C@H](C)Nc1ncc2c(-c3cnn(C(C)(C)C(=O)N4C[C@H](C)O[C@@H](C)C4)c3)cc([C@H]3CC[C@H](O)CC3)n2n1 [Compound 328]
0.1 to 1	≤ 0.1	COC[C@H](C)Nc1ncc2c(-c3cnn(Cc4cncc(C)n4)c3)cc([C@H]3CC[C@H](O)CC3)n2n1 [Compound 329]
0.1 to 1	≤ 0.1	COC[C@H](C)Nc1ncc2c(-c3cnn(C4CC(C(=O)OC)C4)c3)cc([C@H]3CC[C@H](O)CC3)n2n1 (stereo partly shown) [Compound 330]
0.1 to 1	≤ 0.1	COC[C@H](C)Nc1ncc2c(-c3cnn(C(C)(C)C(=O)N4CCS(=O)(=O)CC4)c3)cc([C@H]3CC[C@H](O)CC3)n2n1 [Compound 331, 1-(1,1-dioxidothiomorpholino)-2-(4-(7-((trans)-4-hydroxycyclohexyl)-2-(((S)-1-methoxypropan-2-yl)amino)pyrrolo[2,1-f][1,2,4]triazin-5-yl)-1H-pyrazol-1-yl)-2-methylpropan-1-one]
0.1 to 1	≤ 0.1	COC[C@H](C)Nc1ncc2c(-c3cnn(Cc4cn[nH]c4)c3)cc([C@H]3CC[C@H](O)CC3)n2n1 [Compound 332]
0.1 to 1	≤ 0.1	COC[C@H](C)Nc1ncc2c(-c3cnn(Cc4cc(C)nn4C)c3)cc([C@H]3CC[C@H](O)CC3)n2n1 [Compound 333]
1 to 10	≤ 0.1	CNC(=O)c1ncc(-c2cc([C@H]3CC[C@H](O)CC3)n3nc(N[C@@H](C)COC)ncc23)cn1 [Compound 334]
1 to 10	≤ 0.1	CNC(=O)c1cc(-c2cc([C@H]3CC[C@H](O)CC3)n3nc(N[C@@H](C)COC)ncc23)cc(C)n1 [Compound 335]

From patent US11040981B2, “Pyrrolotriazine compounds and methods of inhibiting TAM kinases” (Syros Pharmaceuticals, Inc., priority 2017, dated 2021)
